Reference: US20230055705A1, “SUBSTITUTED THIOPHENE CARBOXAMIDES AND DERIVATIVES THEREOF” (Bayer Aktiengesellschaft, priority 2019, published 2023)

Tests used:
young plants of cabbage [1] = test: Phytotoxicity observed in the in vivo preventive test on Xanthomonas campestris pv. campestris; details: for phytotoxicity: 125 ppm
Description: The young plants of cabbage were treated by spraying the active ingredient prepared as described above. Control plants were treated only with an aqueous solution of acetone/Dimethyl sulfoxide/Tween®.
After 72 hours, the plants were contaminated by spraying the leaves with an aqueous bacteria suspension of Xanthomonas campestris pv. campestris. The contaminated cabbage plants were incubated for 8 or 10 days at 27° C. at 95% relative humidity.
Compounds CMP1, CMP2, CMP3 and CMP4 were tested in an in vivo preventive test on Xanthomonas campestris pv. campestris (black rot on cabbage) in the same conditions as described in Example H.

young plants of cabbage [2] = test: Phytotoxicity observed in the in vivo preventive test on Peronospora parasitica; details: for phytotoxicity: 500 ppm
Description: The tested active ingredients were prepared by homogenization in a mixture of acetone/Dimethyl sulfoxide/Tween®, and then diluted with water to obtain the desired active material concentration. The young plants of cabbage were treated by spraying the active ingredient prepared as described above. Control plants were treated only with an aqueous solution of acetone/Dimethyl sulfoxide/Tween®.
After 72 hours, the plants were contaminated by spraying the leaves with an aqueous suspension of Peronospora parasitica spores. The contaminated cabbage plants were incubated for 5 days at 20° C. and at 100% relative humidity.
Compounds CMP2 and CMP3 were tested in an in vivo preventive test on Peronospora parasitica (Crucifer downy mildew) in the same conditions as described in Example G.

[3] = tested on: Xanthomonas campestris pv. campestris; test: In vivo preventive test on Xanthomonas campestris pv. campestris (black rot on cabbage); details: evaluated 8 or 10 days after inoculation, read-out: efficacy; for pest or weed control at 31 ppm: 31 ppm of active ingredient
Outline: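 Young cabbage plants sprayed with compound in acetone/DMSO/Tween diluted in water; solvent-only controls. Leaves sprayed with bacterial suspension 72 h later, then held 8 or 10 days at 27° C and 95% relative humidity. Efficacy scored 8 or 10 days post-inoculation, 0% matching controls, 100% meaning no disease.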

[4] = tested on: Pseudomonas syringae pv. tomato; test: In vivo preventive test on Pseudomonas syringae pv. tomato (bacterial speck on tomato); details: 31 ppm of active ingredient, evaluated 5 or 6 days after inoculation, read-out: efficacy
Outline: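 Young tomato plants sprayed with compound in acetone/DMSO/Tween diluted in water; solvent-only controls. Inoculated 72 h later by spraying leaves with bacterial suspension; 4 days saturated atmosphere then 1–2 days at 70–80% RH, 22 °C day/20 °C night. Efficacy scored 5–6 days post-inoculation, 0% = control, 100% = no disease.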

[5] = LogP by HPLC on reversed phase columns (EEC directive 79/831 Annex V.A8); format: physicochemical; details: reversed phase HPLC columns
Outline: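 LogP derived from retention time by linear interpolation against a C3–C16 alkan-2-one calibration series of known LogP. Measured by HPLC on reversed-phase columns following EEC 79/831 Annex V.A8. UV spectra over 200–400 nm at signal peaks gave lambda-max.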

[6] = tested on: salicylate responsive promoter sequence of the PR1 (pathogenesis-related protein I) gene (AT2G14610); test: Induction of defense gene expression in Arabidopsis thaliana (PR1 promoter-GFP reporter plants); format: in vivo; details: Arabidopsis thaliana, 72 h, 3rd day after spraying, mock treated leaves set as 1.00, read-out: relative fluorescence value; for fold induction at 75 ppm: 75 ppm of compound
Outline: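 Transgenic A. thaliana carrying GFP under the salicylate-responsive PR1 promoter, grown five days, then sprayed with compounds. Whole-plant fluorescence imaged and quantified on day 3 post-spray, expressed relative to mock-treated leaf background set at 1.00.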

Peronospora parasitica = test: In vivo preventive test on Peronospora parasitica (Crucifer downy mildew); details: Hyaloperonospora parasitica, in Brassica oleracea, 120 h, cabbage, evaluated 5 days after inoculation, read-out: efficacy; for pest or weed control at 31 ppm: 31 ppm of active ingredient; for pest or weed control at 125 ppm: 125 ppm of active ingredient; for pest or weed control at 500 ppm: 500 ppm of active ingredient
Outline: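 Young cabbage plants were sprayed with compound in acetone/DMSO/Tween diluted with water, then inoculated 72 h later with a Peronospora parasitica spore suspension. Plants were kept 5 days at 20 °C and 100% RH. Efficacy was scored with 0% equal to solvent-treated controls and 100% meaning no disease.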

[7] = tested on: Colletotrichum lindemuthianum; test: Colletotrichum lindemuthianum in vitro cell test; format: cell-based; details: 144 h, 20 ppm of active ingredient, 6 days incubation, read-out: efficacy (inhibition of fungal growth)
Description: (§1) • Solvent: DMSO • Culture medium: 14.6 g anhydrous D-glucose (VWR), 7.1 g Mycological Peptone (Oxoid), 1.4 g granulated Yeast Extract (Merck), QSP 1 liter • Inoculum: spores suspension
(§2) Fungicides were solubilized in DMSO and the solution used to prepare the required range of concentrations. The final concentration of DMSO used in the assay was ≤[…]1%.
A spore suspension of C. lindemuthianum was prepared and diluted to the desired spore density.
(§3) Fungicides were evaluated for their ability to inhibit spores germination and mycelium growth in liquid culture assay. The compounds were added in the desired concentration to the culture medium with spores. After 6 days incubation, fungi-toxicity of compounds was determined by spectrometric measurement of mycelium growth. Inhibition of fungal growth was determined by comparing the absorbance values in wells containing the fungicides with the absorbance in control wells without fungicides.

[8] = tested on: Pseudomonas syringae pv. tomato; test: Pseudomonas syringae pv. tomato in vitro cell test; format: cell-based; details: 20 ppm of active ingredient, 24 h incubation, read-out: efficacy (inhibition of bacteria growth)
Description: Culture medium: LB broth medium (Luria Broth Miller) Sigma
Inoculum: bacteria suspension
Compounds were solubilized in DMSO and the solution used to prepare the required range of concentrations. The final concentration of DMSO used in the assay was 1%.
(§4) Inoculum was prepared from a pre-culture of bacteria grown in liquid medium and diluted to the desired optical density (OD).
(§5) Compounds were evaluated for their ability to inhibit bacteria growth in liquid culture assay. The compounds were added in the desired concentrations to culture medium containing the bacteria suspension. After 24 h of incubation, the efficacy of compounds was determined by spectrometric measurement of bacteria growth. Inhibition was determined by comparing the absorbance values in wells containing the compounds with the absorbance in control wells without active ingredients.

[9] = tested on: Xanthomonas campestris pv. campestris; test: Xanthomonas campestris pv. campestris in vitro cell test; format: cell-based; details: 20 ppm of active ingredient, 24 h incubation, read-out: efficacy (inhibition of bacteria growth)
Description: • Solvent: DMSO • Culture medium: LB broth medium (Luria Broth Miller) Sigma • Inoculum: bacteria suspension
Compounds were solubilized in DMSO and the solution used to prepare the required range of concentrations. The final concentration of DMSO used in the assay was ≤1%.
as §4, §5

Alternaria alternata = Alternaria alternata in vitro cell test; format: cell-based; details: 120 h, 20 ppm of active ingredient, 5 days incubation, read-out: efficacy (inhibition of fungal growth)
Description: as §1, §2
A spore suspension of A. alternata was prepared and diluted to the desired spore density.
as §3, with “inhibit spore” for “inhibit spores”, “After 5” for “After 6”

Uromyces appendiculatus = test: In vivo preventive test on Uromyces appendiculatus (bean rust); details: 240 h, evaluated 10 days after inoculation, read-out: efficacy; for pest or weed control at 125 ppm: 125 ppm of active ingredient; for pest or weed control at 500 ppm: 500 ppm of active ingredient
Outline: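 Young bean plants sprayed with compound in acetone/DMSO/Tween diluted in water, inoculated 72 h later with U. appendiculatus spore suspension. Held 24 h at 20 °C, 100% RH, then 9 days at 20 °C, 70-80% RH. Efficacy scored 10 days post-inoculation versus solvent-treated controls (0% = control, 100% = no disease).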

[10] = tested on: Colletotrichum lindemuthianum; test: In vivo preventive test on Colletotrichum lindemuthianum (Antrachnose on bean); details: 144 h, inoculation 72 h after spraying, evaluated 6 days after inoculation, read-out: efficacy; for pest or weed control at 31 ppm: 31 ppm of active ingredient
Outline: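 Young bean plants sprayed preventively with compound in acetone/DMSO/Tween diluted in water, then spore-inoculated 72 h later. Incubation 24 h at 20° C./100% RH, then 5 days at 20° C./90% RH; scored 6 days post-inoculation as % efficacy (0% = solvent-treated control, 100% = no disease).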

[11] = method [a]: LC-UV, in an acidic range, with 0.1% formic acid in water and acetonitrile as eluent (linear gradient from 10% to 95% acetonitrile)
[12] = method [a]: LC-UV, acidic range, 0.1% formic acid in water and acetonitrile as eluent (linear gradient 10% to 95% acetonitrile)
[13] = given in the preparation examples, method not marked

SMILES	pest or weed control at 31 ppm [3]	pest or weed control at 31 ppm [4]	chromatographic logP [5, 11]	fold induction at 75 ppm [6]	fold induction at 300 ppm [6]	pest or weed control at 31 ppm (Peronospora parasitica)	pest or weed control at 125 ppm (Peronospora parasitica)	inhibition at 20 ppm [7]	inhibition at 20 ppm [8]	inhibition at 20 ppm [9]	inhibition at 20 ppm (Alternaria alternata)	pest or weed control at 125 ppm (Uromyces appendiculatus)	chromatographic logP [5, 12]	pest or weed control at 500 ppm (Peronospora parasitica)	pest or weed control at 31 ppm [10]	other results
CCOC(=O)[C@H](C)NC(=O)c1sc(Cl)c(Cl)c1Cl [CMP3]	0%	–	–	–	–	–	–	–	–	–	–	–	–	–	–	phytotoxicity (in place of Efficacy (%) at 125 ppm) (young plants of cabbage [1]): * (No efficacy measured due to over 80% phytotoxicity observed); phytotoxicity (young plants of cabbage [1]): over 80%; phytotoxicity (in place of Efficacy (%) at 500 ppm) (young plants of cabbage [2]): * (No efficacy measured due to over 80% phytotoxicity observed); phytotoxicity (young plants of cabbage [2]): over 80%
COC(=O)C(NC(=O)c1sc(Cl)c(Cl)c1Cl)C(=O)OC [I.007]	–	80 to 89%	3.31	> 2	> 2	90 to 100%	90 to 100%	≤ 30%	≤ 30%	≤ 30%	≤ 30%	90 to 100%	–	–	–	–
COC(=O)[C@H](C)NC(=O)c1sc(Cl)c(Cl)c1Cl [CMP2]	< 40%	–	–	–	–	–	–	–	–	–	–	–	–	–	–	phytotoxicity (in place of Efficacy (%) at 125 ppm) (young plants of cabbage [1]): * (No efficacy measured due to over 80% phytotoxicity observed); phytotoxicity (young plants of cabbage [1]): over 80%; phytotoxicity (in place of Efficacy (%) at 500 ppm) (young plants of cabbage [2]): * (No efficacy measured due to over 80% phytotoxicity observed); phytotoxicity (young plants of cabbage [2]): over 80%
CC(C)[C@H](NC(=O)c1sc(Cl)c(Cl)c1Cl)C(N)=O [I.147]	–	–	–	–	–	–	90 to 100%	≤ 30%	≤ 30%	≤ 30%	≤ 30%	90 to 100%	2.67	90 to 100%	–	pest or weed control at 8 ppm (Uromyces appendiculatus; 8 ppm): ≥ 90%; pest or weed control at 500 ppm (Uromyces appendiculatus): 90 to 100%
COC(=O)CC[C@H](NC(=O)c1sc(Cl)c(Cl)c1Cl)C(=O)OC [I.139]	–	80 to 89%	–	> 2	> 2	90 to 100%	90 to 100%	≤ 30%	≤ 30%	≤ 30%	≤ 30%	90 to 100%	3.36	–	70 to 79%	–
NC(=O)CNC(=O)c1sc(Cl)c(Cl)c1Cl [I.066, N-(2-amino-2-oxoethyl)-3,4,5-trichlorothiophene-2-carboxamide]	–	80 to 89%	1.89	> 2	> 2	90 to 100%	90 to 100%	≤ 30%	≤ 30%	≤ 30%	≤ 30%	90 to 100%	–	–	70 to 79%	chromatographic logP [5, 13]: 1.89
CCOC(=O)CC[C@H](NC(=O)c1sc(Cl)c(Cl)c1Cl)C(=O)OCC [I.137]	80 to 89%	–	–	> 2	> 2	90 to 100%	90 to 100%	≤ 30%	≤ 30%	≤ 30%	≤ 30%	90 to 100%	4.21	–	80 to 89%	–
CCSC(=O)C1(NC(=O)c2sc(Cl)c(Cl)c2Cl)CC1 [I.011, S-ethyl 1-{[(3,4,5-trichloro-2-thienyl)carbonyl]amino}cyclopropanecarbothioate]	–	–	4.01	> 2	> 2	90 to 100%	90 to 100%	≤ 30%	≤ 30%	≤ 30%	≤ 30%	–	–	90 to 100%	–	chromatographic logP [5, 13]: 4.01
CCOC(=O)C(NC(=O)c1sc(Cl)c(Cl)c1Cl)c1ccccc1 (stereo not shown) [I.064]	–	–	4.89	–	> 2	80 to 89%	90 to 100%	≤ 30%	≤ 30%	≤ 30%	≤ 30%	–	–	90 to 100%	–	pest or weed control at 500 ppm ([10]; 500 ppm of active ingredient): 80 to 89%; pest or weed control at 125 ppm ([3]; 125 ppm of active ingredient): 70 to 79%; pest or weed control at 500 ppm (Uromyces appendiculatus): 90 to 100%
